Counter-ions that a name gives are not always drawn.

The record followed here is patent US10202385B2, “Use of substituted 2,3-dihydroimidazo[1,2-C]quinazolines” (BAYER INTELLECTUAL PROPERTY GMBH, priority 2011, dated 2019).

Holding throughout (format): cell-based
For test [1], the system named is breast tumor cells (BT-20, BT-474, KPL-4). Kind of test: Apoptosis induction (PARP cleavage, Caspase 3/7) in breast tumor cells. The protocol: (§1) Tumor cells were seeded in 384-well plates at a concentration of 1000-2500 cells/well/25 μL depending on cell lines. After overnight incubation, cells were treated with compounds (5 μL). Then, Caspase 3/7 activities were determined at 24 to 48 hours post-treatment using Caspase-Glo3/7 assay kits (Promega Cat # G8212).

The subject of test [2] is T47D cells. In words: 72-hour tumor cell proliferation assay in T47D cells. The conditions noted are these: T47D (PIK3CA mut). The method, then: In accordance with the invention, the compound were assessed in a cell-based assay that measures the capacity of the compounds to inhibit tumor cell proliferation following a 72-hour drug exposure. Cell viability was conducted by Invitrogen (breast Oncopanel, Invitrogen, USA), or was determined using CellTiter-Glo® Luminescent Cell Viability Assay (Promega) as follows. Cells were plated at 300-5000 cells/well depending on the cell lines or microtiter plates (96- or 384-well) in 100 μL growth medium in 96-well and 20 μL growth medium in 384-well microtiterplate. For each cell line assayed, cells were plated onto a separate plate for determination of luminescence at t=0 hour and t=72 hour time points. Following overnight incubation at 37° C., luminescence values for the t=0 samples were determined. Dose plates for the t=72 hour time points were treated with compounds diluted into growth medium. Cells were then incubated for 72 hours at 37° C. Luminescence values for the t=72 hour samples were determined. For data analysis, briefly, t=0 values were subtracted from those determined for the t=72 hour time points, for both the treated and untreated samples. Percent differences in luminescence between drug-treated and control values were used to determine the percent inhibition of growth. […]

Test [3] concerns MDA-MB-468 tumor cells. In words: Apoptosis induction (PARP cleavage) in MDA-MB-468 cells. The conditions noted are these: PTEN null, EGFR high, Bcl-2 negative MDA-MB-468. The protocol: as §1
The cellular expression of the mTORC2 component Rictor was assessed by western blot analysis (A). Induction of PARP cleavage by compound A treatment in combination with inhibition of mTORC1 or mTORC2 (B). shControl and shRictor MDA-MB468 cells were treated with indicated agents for 48 hours, and cleavage of PARP was analyzed. GAPDH was used as an internal protein control.

Test [4] has as its system T47D cells. Kind of test: Apoptosis induction (PARP cleavage, Caspase-Glo 3/7) in T47D cells. The method, then: as §1
The combination effects of PI3K inhibitors and other agent were evaluated using combination index isobologram analysis (Chou et al. Pharmacology Reviews 2006). The efficacy parameters were the median effect in a 72-hour cell proliferation assay and the 24- or 48-hour Caspase 3/7 activity assay described above. Briefly, cells were plated in 384-well plate with 25 μl medium. […] The corresponding component doses of D1 and D2 at the E(I)C50/E(I)C90 were calculated and used for plotting isobolograms. The multiple drug effect was analyzed as described by Chou et al. (Pharmacology Reviews 2006) and the combination index was calculated using the formula: Combination Index=[D1x]/D1′+[D2x]/D2′ where D1x and D2x refer to the Drug 1 and Drug 2 concentration at EC50/IC50 or EC90/IC90, respectively, in combination; and D1′ and D2′ refer to the EC50/IC50 or EC90/IC90 values of D1 and D2, respectively, as single agents. […]

A further test deals with breast tumor cell lines. In words: 72-hour tumor cell proliferation assay, molecular profiling in 24 breast tumor cell lines. The protocol: In accordance with the invention, the compound were assessed in a cell-based assay that measures the capacity of the compounds to inhibit tumor cell proliferation following a 72-hour drug exposure. Cell viability was conducted by Invitrogen (breast Oncopanel, Invitrogen, USA), or was determined using CellTiter-Glo® Luminescent Cell Viability Assay (Promega) as follows. Cells were plated at 300-5000 cells/well depending on the cell lines or microtiter plates (96- or 384-well) in 100 μL growth medium in 96-well and 20 μL growth medium in 384-well microtiterplate. For each cell line assayed, cells were plated onto a separate plate for determination of luminescence at t=0 hour and t=72 hour time points. Following overnight incubation at 37° C., luminescence values for the t=0 samples were determined. Dose plates for the t=72 hour time points were treated with compounds diluted into growth medium. Cells were then incubated for 72 hours at 37° C. Luminescence values for the t=72 hour samples were determined. For data analysis, briefly, t=0 values were subtracted from those determined for the t=72 hour time points, for both the treated and untreated samples. Percent differences in luminescence between drug-treated and control values were used to determine the percent inhibition of growth.
Using a set of breast cancer cell lines representing differential receptor expression status and genetic alterations of PIK3CA and PTEN, the anti-proliferative and apoptotic effects of Compound A were investigated.

In test [5] the test system is MDA-MB-468 tumor cells. In words: Tumor cell proliferation assay in MDA-MB-468 cells. The conditions noted are these: PTEN null, EGFR high, Bcl-2 negative MDA-MB-468. The protocol: In accordance with the invention, the compound were assessed in a cell-based assay that measures the capacity of the compounds to inhibit tumor cell proliferation following a 72-hour drug exposure. Cell viability was conducted by Invitrogen (breast Oncopanel, Invitrogen, USA), or was determined using CellTiter-Glo® Luminescent Cell Viability Assay (Promega) as follows. Cells were plated at 300-5000 cells/well depending on the cell lines or microtiter plates (96- or 384-well) in 100 μL growth medium in 96-well and 20 μL growth medium in 384-well microtiterplate. For each cell line assayed, cells were plated onto a separate plate for determination of luminescence at t=0 hour and t=72 hour time points. Following overnight incubation at 37° C., luminescence values for the t=0 samples were determined. […] Luminescence values for the t=72 hour samples were determined. For data analysis, briefly, t=0 values were subtracted from those determined for the t=72 hour time points, for both the treated and untreated samples. Percent differences in luminescence between drug-treated and control values were used to determine the percent inhibition of growth.
The combination effects of PI3K inhibitors and other agent were evaluated using combination index isobologram analysis (Chou et al. Pharmacology Reviews 2006). […]

Consider `COc1c(OCCCN2CCOCC2)ccc2c1N=C(NC(=O)c1cnc(N)nc1)N1CCN=C21` [Compound A, 2-amino-N-[7-methoxy-8-(3-morpholin-4-ylpropoxy)-2,3-dihydroimidazo[1,2-c]quinazolin-5-yl]pyrimidine-5-carboxamide dihydrochloride], for which the apoptosis induction result in test [1] (PIK3CA mutant and or HER2 positive breast tumor cells (such as BT20, BT474)) is “strong activity”; in the test on T47D cells [4] (T47D (PIK3CA mut), high level of Bcl-2) it was “resistant to apoptosis”. The inducing apoptosis result in test [1] (breast cancer cells expressing HER2 and/or PIK3CA mutation in the absence of Bcl-2 (conclusion)) is recorded as “extremely effective”. Moreover, the apoptosis after exposure result in test [1] (tumor cells that lack Bcl-2 expression (KPL-4, BT-474, BT-20)) is given as “immediately underwent apoptosis”. The “anti-proliferative activity IC50” value with T47D cells [2] is reported as “single-digit”. Besides, in the test on MDA-MB-468 tumor cells [3], the induction of apoptosis entry is reported as “resistant”. In addition, the half-inhibitory concentration (IC50) came out at 19 nM in the test on breast tumor cell lines (breast tumor cells with HER2 expression, n=8 cell lines, proliferation); 17 nM in the test on breast tumor cell lines (breast tumor cells with PIK3CA mutation, n=7 cell lines, proliferation); 773 nM in the test with breast tumor cell lines (wild type PIK3CA and HER2 negative breast cancer cells, n=12, proliferation). The inhibition of proliferation result in the test on MDA-MB-468 tumor cells [5] is given as “insensitive”.

Turning to `CN(C)CC[C@H](CSc1ccccc1)Nc1ccc(S(=O)(=O)NC(=O)c2ccc(N3CCN(Cc4ccccc4-c4ccc(Cl)cc4)CC3)cc2)cc1[N+](=O)[O-]` [ABT-737, reference compound], the “sensitization to apoptosis in combination with Compound A” value in the test with T47D cells [4] (T47D cells, ABT-737 combined with Compound A) is reported as “sensitized T47D cells to apoptosis”.

A word on the IC50: it is the concentration at which inhibition is half-maximal.
